Consider 8 compounds from US20240182461A1, “SELECTIVE ANGIOTENSIN II RECEPTOR LIGANDS” (priority 2021, published 2024).

Like-named read-outs stand apart in the source and are kept apart here.

Data set [1] in a line: Metabolic stability in pooled human liver microsomes. The note with it: human liver microsomes 0.5 mg/mL, 1 μM compound, 37° C. It counts as in vitro ADME.
Data set [2] deals with T1, human recombinant AT2 receptor (Homo sapiens, UniProt P50052).
T1 construct: Eurofins (protocol only) ITEM26
T1 sequence (P50052 1-363): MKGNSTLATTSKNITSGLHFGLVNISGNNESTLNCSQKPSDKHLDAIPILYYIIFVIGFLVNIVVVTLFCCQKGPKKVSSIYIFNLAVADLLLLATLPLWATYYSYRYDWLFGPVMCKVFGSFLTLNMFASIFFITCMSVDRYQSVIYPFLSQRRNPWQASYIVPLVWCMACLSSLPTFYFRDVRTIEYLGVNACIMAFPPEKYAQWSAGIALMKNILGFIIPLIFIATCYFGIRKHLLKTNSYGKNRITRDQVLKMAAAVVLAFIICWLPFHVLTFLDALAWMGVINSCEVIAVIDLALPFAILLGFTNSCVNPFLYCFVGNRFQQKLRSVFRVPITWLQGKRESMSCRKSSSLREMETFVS
As to the kind of experiment: Radioligand binding to AT2 receptor (Eurofins radiometric scintillation assay). The note with it: ligand 125I CGP 42112A; for IC50: 1, 10, 100 and 1000 nM, read-out: AT2 GraFit IC50; for Ki: seven-point dose-response curve, read-out: AT2R Ki.

The target in data set [3] is T2, human recombinant AT1 receptor (Homo sapiens, UniProt P30556).
T2 construct: Eurofins (protocol only) ITEM24
T2 sequence (P30556 1-359): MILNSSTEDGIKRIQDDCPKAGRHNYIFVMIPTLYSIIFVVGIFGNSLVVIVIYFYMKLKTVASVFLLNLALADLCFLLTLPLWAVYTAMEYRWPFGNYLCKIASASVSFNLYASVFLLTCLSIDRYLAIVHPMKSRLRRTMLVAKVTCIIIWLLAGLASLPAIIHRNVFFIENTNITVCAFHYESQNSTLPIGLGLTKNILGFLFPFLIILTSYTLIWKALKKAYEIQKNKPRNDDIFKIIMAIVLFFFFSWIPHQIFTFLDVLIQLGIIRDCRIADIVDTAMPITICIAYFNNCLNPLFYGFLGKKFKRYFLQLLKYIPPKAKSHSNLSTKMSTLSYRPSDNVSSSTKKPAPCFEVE
Put plainly: Radioligand binding to AT1 receptor (Eurofins radiometric scintillation assay). To be noted: 1 and 10 μM; ligand 125I(sar1,Ile8)-AT-II.

The nature of data set [4]: Metabolic hydrolysis of C21 found during development. It counts as in vitro ADME.
Data set [5] has as its target T3, CYP3A4 (Homo sapiens, UniProt P08684). As to the kind of experiment: CYP inhibition of C21 found during development. In kind it is in vitro ADME.
The target of data set [6] is T4, CYP2C9 (Homo sapiens, UniProt P11712). As to the kind of experiment: CYP inhibition of C21 found during development. It counts as in vitro ADME.
T4 sequence (P11712 whole entry): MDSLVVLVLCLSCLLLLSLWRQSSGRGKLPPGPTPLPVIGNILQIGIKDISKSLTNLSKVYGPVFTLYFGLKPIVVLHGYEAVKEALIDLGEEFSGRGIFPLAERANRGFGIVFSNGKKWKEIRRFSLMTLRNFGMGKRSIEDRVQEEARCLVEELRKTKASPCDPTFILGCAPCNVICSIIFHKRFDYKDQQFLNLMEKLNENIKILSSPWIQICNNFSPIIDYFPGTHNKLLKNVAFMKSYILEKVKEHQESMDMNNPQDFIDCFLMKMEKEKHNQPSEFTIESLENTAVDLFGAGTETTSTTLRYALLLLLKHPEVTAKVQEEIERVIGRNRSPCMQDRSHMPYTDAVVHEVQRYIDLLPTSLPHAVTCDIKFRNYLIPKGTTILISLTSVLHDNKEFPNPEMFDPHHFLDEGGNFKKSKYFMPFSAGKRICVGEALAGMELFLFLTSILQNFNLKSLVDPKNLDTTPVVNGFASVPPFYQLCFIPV
The next data set has as its target T5, CYP2C8 (Homo sapiens, UniProt P10632).
T5 construct: incubated with human liver microsomes; from tissue; host or cells: human liver microsomes
T5 sequence (P10632 1-490): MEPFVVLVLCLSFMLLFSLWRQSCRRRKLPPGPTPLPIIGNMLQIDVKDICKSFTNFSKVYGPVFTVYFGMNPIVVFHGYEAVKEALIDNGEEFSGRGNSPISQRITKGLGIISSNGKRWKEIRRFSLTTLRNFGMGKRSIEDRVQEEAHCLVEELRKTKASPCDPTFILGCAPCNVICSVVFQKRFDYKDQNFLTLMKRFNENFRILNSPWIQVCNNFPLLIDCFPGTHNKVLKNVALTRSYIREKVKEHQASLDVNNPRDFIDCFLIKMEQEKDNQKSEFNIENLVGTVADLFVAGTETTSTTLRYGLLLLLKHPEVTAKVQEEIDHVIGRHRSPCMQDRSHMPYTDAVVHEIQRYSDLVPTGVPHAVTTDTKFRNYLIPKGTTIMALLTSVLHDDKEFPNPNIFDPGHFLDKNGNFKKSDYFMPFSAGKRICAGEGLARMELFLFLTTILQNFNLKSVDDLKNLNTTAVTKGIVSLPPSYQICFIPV
As to the kind of experiment: CYP inhibition in human liver microsomes, CYP2C8. To be noted: probe paclitaxel and amodiaquine, substrates paclitaxel and amodiaquine, read-out: CYP2C8 Inh %. In kind it is in vitro ADME. In general terms: Liver microsomes are a subcellular fraction often used to study metabolism.

A further data set addresses T6, CYP2D6 (Homo sapiens, UniProt P10635).
T6 construct: incubated with human liver microsomes; from tissue; host or cells: human liver microsomes
Put plainly: CYP inhibition in human liver microsomes, CYP2D6. It counts as in vitro ADME. To be noted: probe dextromethorphan, substrate dextromethorphan, read-out: CYP2D6 Inh %.

In a further data set the test system is CYP3A4&5. As to the kind of experiment: CYP inhibition in human liver microsomes, CYP3A4&5 testosterone. The note with it: probe testosterone, substrate testosterone, read-out: CYP3A4&5 testosterone Inh %. In kind it is in vitro ADME.
Another data set has as its target T7, CYP2B6 (Homo sapiens, UniProt P20813).
T7 construct: incubated with human liver microsomes; from tissue; host or cells: human liver microsomes
T7 sequence (P20813 1-491): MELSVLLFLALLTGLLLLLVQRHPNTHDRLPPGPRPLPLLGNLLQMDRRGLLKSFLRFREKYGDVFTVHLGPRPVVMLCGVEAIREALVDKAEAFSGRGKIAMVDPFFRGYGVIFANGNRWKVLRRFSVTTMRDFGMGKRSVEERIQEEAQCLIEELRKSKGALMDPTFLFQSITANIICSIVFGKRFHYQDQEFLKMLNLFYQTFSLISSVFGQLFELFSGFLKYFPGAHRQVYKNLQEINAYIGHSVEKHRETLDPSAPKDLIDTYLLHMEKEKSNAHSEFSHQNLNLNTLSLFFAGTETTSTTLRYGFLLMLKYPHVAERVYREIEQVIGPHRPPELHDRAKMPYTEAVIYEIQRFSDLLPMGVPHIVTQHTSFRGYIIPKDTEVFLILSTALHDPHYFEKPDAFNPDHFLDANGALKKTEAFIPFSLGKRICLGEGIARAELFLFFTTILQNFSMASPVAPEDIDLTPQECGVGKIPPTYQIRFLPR
As to the kind of experiment: CYP inhibition in human liver microsomes, CYP2B6. In kind it is in vitro ADME. To be noted: probe bupropion, substrate bupropion, read-out: CYP2B6 Inh %.

For data set [7], the target named is T3, CYP3A4. As to the kind of experiment: CYP inhibition in human liver microsomes, CYP3A4 midazolam. It counts as in vitro ADME. Set-up: incubated with human liver microsomes; from tissue; host or cells: human liver microsomes. The note with it: probe midazolam, substrate midazolam, read-out: CYP3A4 midazolam Inh %.
Data set [8] has as its target T4, CYP2C9. As to the kind of experiment: CYP inhibition in human liver microsomes, CYP2C9. In kind it is in vitro ADME. The arrangement: incubated with human liver microsomes; from tissue; host or cells: human liver microsomes. The note with it: probe diclofenac, substrate diclofenac, read-out: CYP2C9 Inh %.
The next data set has as its target T8, CYP2C19 (Homo sapiens, UniProt P33261).
T8 construct: incubated with human liver microsomes; from tissue; host or cells: human liver microsomes
Put plainly: CYP inhibition in human liver microsomes, CYP2C19. To be noted: probe omeprazole, substrate omeprazole, read-out: CYP2C19 Inh %. It counts as in vitro ADME.

For the next data set, the target named is T9, CYP1A (Homo sapiens, UniProt P05177).
T9 construct: incubated with human liver microsomes; from tissue; host or cells: human liver microsomes
T9 sequence (P05177 whole entry): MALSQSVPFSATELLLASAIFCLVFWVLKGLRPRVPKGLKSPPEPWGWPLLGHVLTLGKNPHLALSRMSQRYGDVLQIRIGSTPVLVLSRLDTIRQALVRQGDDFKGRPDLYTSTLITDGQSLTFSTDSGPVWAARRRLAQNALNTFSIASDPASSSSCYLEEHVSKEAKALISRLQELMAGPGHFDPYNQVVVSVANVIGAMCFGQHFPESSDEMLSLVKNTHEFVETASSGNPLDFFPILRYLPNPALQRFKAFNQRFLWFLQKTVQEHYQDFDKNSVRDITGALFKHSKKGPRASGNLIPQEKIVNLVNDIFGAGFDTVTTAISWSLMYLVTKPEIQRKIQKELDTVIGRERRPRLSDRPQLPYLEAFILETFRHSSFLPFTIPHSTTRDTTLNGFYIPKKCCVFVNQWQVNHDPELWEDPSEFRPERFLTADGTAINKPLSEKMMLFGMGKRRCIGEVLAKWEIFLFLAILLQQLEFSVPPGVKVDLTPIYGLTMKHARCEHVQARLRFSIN
Put plainly: CYP inhibition in human liver microsomes, CYP1A. It counts as in vitro ADME. To be noted: probe phenacetin, substrate phenacetin, read-out: CYP1A Inh %.

Setting [9] is: with 1 mM NADPH, read-out: T1/2, + NaDPH.
Where [10] appears, read: without NADPH, read-out: T1/2, no NaDPH.

T6 sequence (P10635 whole entry): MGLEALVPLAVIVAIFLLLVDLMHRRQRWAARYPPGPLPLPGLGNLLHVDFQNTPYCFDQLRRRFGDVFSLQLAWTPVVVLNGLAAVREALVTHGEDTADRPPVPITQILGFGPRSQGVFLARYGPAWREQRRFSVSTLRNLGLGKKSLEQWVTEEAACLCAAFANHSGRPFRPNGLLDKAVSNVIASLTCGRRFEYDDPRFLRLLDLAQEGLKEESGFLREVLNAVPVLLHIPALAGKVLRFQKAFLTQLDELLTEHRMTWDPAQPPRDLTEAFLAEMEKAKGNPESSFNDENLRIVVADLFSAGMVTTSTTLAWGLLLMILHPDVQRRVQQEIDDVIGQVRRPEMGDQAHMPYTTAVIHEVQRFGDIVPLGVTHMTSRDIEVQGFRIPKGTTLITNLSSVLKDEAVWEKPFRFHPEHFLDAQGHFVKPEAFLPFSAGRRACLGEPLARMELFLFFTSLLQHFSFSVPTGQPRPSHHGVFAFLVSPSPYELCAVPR
T3 sequence (P08684 whole entry): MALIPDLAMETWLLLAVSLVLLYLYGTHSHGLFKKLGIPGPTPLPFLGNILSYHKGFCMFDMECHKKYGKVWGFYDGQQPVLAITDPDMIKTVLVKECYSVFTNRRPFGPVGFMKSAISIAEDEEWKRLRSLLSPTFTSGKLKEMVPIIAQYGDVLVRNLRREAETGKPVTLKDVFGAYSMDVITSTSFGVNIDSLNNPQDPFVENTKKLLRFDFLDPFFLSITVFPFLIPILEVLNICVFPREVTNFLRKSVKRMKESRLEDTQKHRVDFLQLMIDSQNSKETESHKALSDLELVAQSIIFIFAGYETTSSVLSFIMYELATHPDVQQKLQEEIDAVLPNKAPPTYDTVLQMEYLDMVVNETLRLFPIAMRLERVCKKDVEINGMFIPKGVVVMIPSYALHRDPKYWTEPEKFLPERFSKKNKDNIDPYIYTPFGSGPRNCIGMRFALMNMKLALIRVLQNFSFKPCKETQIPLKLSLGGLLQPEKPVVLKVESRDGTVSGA
T8 sequence (P33261 whole entry): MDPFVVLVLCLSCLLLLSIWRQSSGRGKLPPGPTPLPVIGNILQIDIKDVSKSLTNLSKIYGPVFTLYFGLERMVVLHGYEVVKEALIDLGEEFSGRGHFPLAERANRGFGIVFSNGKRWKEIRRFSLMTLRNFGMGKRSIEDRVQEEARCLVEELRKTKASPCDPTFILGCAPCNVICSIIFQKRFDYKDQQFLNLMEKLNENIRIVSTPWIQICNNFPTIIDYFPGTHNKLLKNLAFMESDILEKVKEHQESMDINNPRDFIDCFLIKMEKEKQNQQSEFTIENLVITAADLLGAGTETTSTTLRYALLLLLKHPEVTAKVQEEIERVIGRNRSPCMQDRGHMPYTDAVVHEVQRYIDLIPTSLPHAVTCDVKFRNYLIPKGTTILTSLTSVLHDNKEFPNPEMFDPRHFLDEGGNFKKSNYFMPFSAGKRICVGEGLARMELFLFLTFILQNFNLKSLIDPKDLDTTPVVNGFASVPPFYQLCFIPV

For orientation: IC50 means the concentration needed to halve the response being measured. In general, Ki refers to a measure of affinity in units of concentration, obtained from inhibition or displacement. As for `COC(=O)NS(=O)(=O)c1ccc(CC(C)C)cc1-c1ccc(Cn2ccnc2C)cc1` [Example 18, Methyl (5-isobutyl-4′-((2-methyl-1H-imidazol-1-yl)methyl)-[1,1′-biphenyl]-2-yl)sulfonylcarbamate], the half-life at 1 μM in data set [1] (setting [9]) was over 60 min. Also, the half-life at 1 μM in data set [1] (setting [10]) is over 60 min. For the same compound, in data set [2], the IC50 stood at 1.78 nM and the Ki stood at 0.93 nM.

In the case of `CC(C)Cc1nc(-c2ccc(Cn3ccnc3C(C)(C)C)cc2)c(S(=O)(=O)NC(=O)NCc2cccs2)s1` [Example 1, 4-(4-((2-(tert-Butyl)-1H-imidazol-1-yl)methyl)phenyl)-2-isobutyl-N-((thiophen-2-ylmethyl)carbamoyl)thiazole-5-sulfonamide], the IC50 in data set [3] was found to be 1350 nM. Further, in data set [2], the IC50 stood at 13 nM and the Ki is 6.5 nM.

For the compound `CC(C)Cc1ccc(S(=O)(=O)NC(=O)NCc2ccccn2)c(-c2ccc(Cn3ccnc3C(C)(C)C)cc2)c1` [Example 2, 4′-((2-(tert-Butyl)-1H-imidazol-1-yl)methyl)-5-isobutyl-N-((pyridin-2-ylmethyl)carbamoyl)-[1,1′-biphenyl]-2-sulfonamide], the IC50 in data set [3] is 4600 nM. Further, in data set [2], the IC50 is 0.43 nM and the Ki worked out at 0.22 nM.

For the compound `CC(C)Cc1ccc(S(=O)(=O)NC(=O)OCCO)c(-c2ccc(Cn3ccnc3C(C)(C)C)c(F)c2)c1` [Example 17, 2-Hydroxyethyl (4′-((2-(tert-butyl)-1H-imidazol-1-yl)methyl)-3′-fluoro-5-isobutyl-[1,1′-biphenyl]-2-yl)sulfonylcarbamate], the half-life at 1 μM in [1] (setting [9]) is over 60 min. The half-life at 1 μM in data set [1] (setting [10]) was over 60 min. In data set [2], the IC50 was determined as 0.274 nM and the Ki came to 0.14 nM.

In the case of `CCCCOC(=O)NS(=O)(=O)c1sc(CC(C)C)cc1-c1ccc(Cn2ccnc2)cc1` [Example C21, N-butyloxycarbonyl-3-(4-imidazol-1-ylmethylphenyl)-5-isobutylthiophene-2-sulfon-amide], in [4], the metabolic hydrolysis entry is “rapidly hydrolysed to an inactive sulfonamide metabolite”. Moreover, the “inhibition of CYP 3A4” value against CYP3A4 [5] is “potent inhibitor”. Besides, the “inhibition of CYP 2C9” value at CYP2C9 [6] is reported as “potent inhibitor”.

Turning to `CCOC(=O)NS(=O)(=O)c1ccc(CC(C)C)cc1-c1ccc(Cn2ccnc2C(C)C)c(F)c1` [Example 8, Ethyl ((3′-fluoro-5-isobutyl-4′-((2-isopropyl-1H-imidazol-1-yl)methyl)-[1,1′-biphenyl]-2-yl)sulfonyl)carbamate], the half-life at 1 μM in data set [1] (setting [9]) was found to be 36 min; in data set [1] (setting [10]), 35 min. Besides, the inhibition at 10 µM on CYP2C8 was 76.7%; on CYP2D6 it was 1.2%; in the data set on CYP3A4&5 it was 19.4%; on CYP2B6, 32%; at CYP3A4 [7], -4.7%; on CYP2C9 [8] it was 50%. In addition, the inhibition at 10 µM on CYP2C19 was determined as 33.7%; at CYP1A, 10.4%.

Consider `CCOC(=O)NS(=O)(=O)c1ccc(CC(C)C)cc1-c1ccc(Cn2ccnc2C)c(F)c1` [Example 12, Ethyl ((3′-fluoro-5-isobutyl-4′-((2-methyl-1H-imidazol-1-yl)methyl)-[1,1′-biphenyl]-2-yl)sulfonyl)carbamate], for which the half-life at 1 μM in data set [1] (setting [9]) is over 60 min; in data set [1] (setting [10]), 50 min. For the same compound, the inhibition at 10 µM worked out at 39.7% on CYP2C8; 2.9% at CYP2D6; 12.6% in the data set with CYP3A4&5; 18.9% at CYP2B6; 8.6% at CYP3A4 [7]; 52.6% on CYP2C9 [8]. Besides, the results for the inhibition at 10 µM at CYP2C19 and on CYP1A were 50.7% and 5.9%, respectively.

In the case of `CCCCOC(=O)NS(=O)(=O)c1ccc(CC(C)C)cc1-c1ccc(Cn2ccnc2C(C)(C)C)c(F)c1` [Example 4, Butyl ((4′-((2-(tert-butyl)-1H-imidazol-1-yl)methyl)-3′-fluoro-5-isobutyl-[1,1′-biphenyl]-2-yl)sulfonyl)carbamate], the half-life at 1 μM was 2 min in data set [1] (setting [9]) and 4 min in [1] (setting [10]). Also, the inhibition at 10 µM amounted to 87.5% on CYP2C8; 26.5% on CYP2D6; 23.5% in the data set with CYP3A4&5; 62.4% at CYP2B6; 18.1% on CYP3A4 [7]; 92.8% at CYP2C9 [8]. In addition, the inhibition at 10 µM on CYP2C19 was 60.4%; on CYP1A, -35.8%. Also, the IC50 came out at 1200 nM in [3] and 0.49 nM in data set [2]. Also, in data set [2], the Ki came to 0.25 nM.
